Measurements from patent US10973815B2, “Delta opioid agonist mu opioid antagonist compositions and methods for treating Parkinsons disease” (priority 2016, dated 2021).

How the values were obtained:
[1] = tested on: MPTP-lesioned cynomolgus macaques; assay: Acute DPI-289 in combination with low-dose L-DOPA, versus high-dose L-DOPA, in MPTP-lesioned macaques with L-DOPA-induced dyskinesia; format: in vivo, Macaca fascicularis; details: high dose L-DOPA alone (about 30 to 31 mg/kg)
From the text: This study utilized female MPTP-lesioned cynomolgus macaques that have received chronic repeat-treatment with L-DOPA and manifested stable and reproducible dyskinesia, of choreic and dystonic nature, in response to subsequent L-DOPA-treatments. Eight cynomolgus monkeys (Macaca fascicularis, 7.6-13.1 years of age, 3.0-4.5 kg) were used in this study. In a prior experiment, for each individual animal a low and high dose of L-DOPA was established such that the low dose (LD1) provided modest anti-parkinsonian action (1-2 h) and elicited predominantly non-disabling dyskinesia, the high dose (LDh) provided the best anti-parkinsonian effect achievable but also elicited disabling dyskinesia and an anti-parkinsonian benefit of 2-3 h duration
The behavioral effects of acute DPI-289 administered in combination with low-dose L-DOPA (LD1) were assessed. Also higher dose of L-DOPA was also assessed without the addition of DPI-289. The low dose (LD1) was about 10 to 11 mg/kg of L-DOPA which is considered to be sub-optimal in terms of anti-parkinsonian benefit. The dose of DPI-289 was 20 mg/kg and the high dose of L-DOPA was about 30 to 31 mg/kg and considered to an optimal does in terms of anti-parkinsonian benefit but with disabling dyskinesia. The DPI-289 was administered one (1) hour prior to the L-DOPA and start of observation. Activity counts were collected and parkinsonian disability and dyskinesia was assessed via post-hoc analysis of video-recordings by a movement disorder neurologist blinded to treatment.
On the day before behavioral observations, food was removed overnight, from 5 p.m. On days of behavioral assessment, treatment was administered to the animals in their home cage at approximately 9 a.m. A 6 h period of observation then commenced 1 h after oral dosing.
The animals were rendered parkinsonian by once daily subcutaneous injection of 0.2 mg/kg MPTP, administered for 8-12 days, until the first appearance of parkinsonism symptoms. After this time, a parkinsonian syndrome reached a moderate to marked level, over approximately 30 days, and stabilized. Additional administrations of MPTP were given to some animals to titrate to similar degrees of parkinsonism in individuals across the group. […] Sixty days after commencing MPTP administration, L-DOPA (25 mg/kg) was administered orally twice daily for at least two months. L-DOPA was given with the decarboxylase inhibitor benserazide (as Madopar™). This treatment leads to the development of motor fluctuations, including dyskinesia.

[2] = tested on: unilateral 6-OHDA-lesioned Rats; assay: Postural asymmetry and dyskinesia (AIMs) on repeated dosing in unilateral 6-OHDA-lesioned rats; format: in vivo, rat; details: 6 mg/kg i.p. daily for 15 days
MPTP-treated marmosets = details: similar dose levels (10 mg/kg); cited from earlier work
rats = details: cited from earlier work
[3] = tested on: rats treated with reserpine or dopamine receptor antagonists (haloperidol or SCH23390); details: 10 mg/kg i.p.; cited from earlier work
mice = details: cited from earlier work
[4] = tested on: MPTP-lesioned primate (marmosets) model of Parkinson's disease; details: 10 mg/kg i.p.; without attenuation of the anti-parkinsonian actions of L-DOPA; cited from earlier work

N[C@@H](Cc1ccc(O)c(O)c1)C(=O)O [L-DOPA, reference compound]
dyskinesia [1]: severe dyskinesia in the first three hours after dosage
parkinsonian disability [1]: parkinsonian disability increased in the last four to six hours
postural asymmetry [2]: reduced or reversed the postural asymmetry

C=CCN1C[C@H](C)N([C@H](c2ccc(C(=O)N(CC)CC)cc2)c2cccc(OC)c2)C[C@H]1C [SNC80]
motor activity, bradykinesia and disability scores (MPTP-treated marmosets): restored motor activity, bradykinesia and disability scores to normal
parkinsonian posture (MPTP-treated marmosets): not statistically reversed
convulsions (rats): seizure-like convulsions
behavioral deficits (ambulatory behavior, grooming, rearing, social interaction and exploration, static investigation) [3]: restored behavioral deficits
convulsions (mice): seizure-like convulsions

COc1cccc2c1[C@]13CCN(CC4CC4)[C@H](C2)[C@]1(OC)CCC(=O)C3 [cyprodime]
L-DOPA-induced dyskinesia [4]: reduce completely L-DOPA-induced dyskinesia
